In US20260256792A1, “TREATMENT OF CHRONIC SPONTANEOUS URTICARIA BY ADMINISTERING (R)-2-[3-[4-AMINO-3-(2-FLUORO-4-PHENOXY-PHENYL)PYRAZOLO[3,4-D]PYRIMIDIN-1-YL]PIPERIDINE-1-CARBONYL]-4-METHYL-4-[4-(OXETAN-3-YL)PIPERAZIN-1-YL]PENT-2-ENENITRILE” (priority 2023, published 2026):

System: moderate-to-severe chronic spontaneous urticaria (CSU)
Experiment: Phase 2 CSU study: itch severity score over 7 days (ISS7)
Format: in vivo, human
From the text: The study comprises a 12 week, randomized, double-blind, placebo-controlled, multi-center, dose-ranging efficacy and safety phase, followed by a 40 week open label extension (OLE) phase (see FIG. 1). The study consists of three phases and an optional OLE phase. […] Clinically, CSU is characterized by the spontaneous and recurrent appearance of pruritic hives. The proposed primary endpoints were the UAS7 at Week 12 in EU and EU reference countries and the ISS7 in the US. Regardless of where a participant was from, all assessments were the same. The UAS7 score is a composite score containing both the HSS7 and the ISS7. This allowed a global assessment of the two key components of urticaria: hives and itch. […] The UAS is a validated PRO measure. […] The daily UAS scores range from 0 to 6 point/day. […] Patients were to complete the UAS using the e-diary. […] The following secondary endpoints were to be analyzed using the same approach as for the primary endpoint: • Change from baseline in UAS7 at Week 4 • Change from baseline in UAS7 at Week 12 (for US and US reference countries) • Change from baseline in ISS7 at Week 12 (except US and US reference countries) • Change from baseline in HSS7 at Week 12

[1] = Week 7, 400 mg TID, Omalizumab-Naïve
[2] = Week 7, 400 mg TID, Prior Omalizumab Use
[3] = Week 8, 400 mg BID, Omalizumab-Naïve
[4] = Week 8, 400 mg BID, Prior Omalizumab Use
[5] = Week 8, 400 mg QPM, Omalizumab-Naïve
[6] = Week 8, 400 mg QPM, Prior Omalizumab Use
[7] = Week 8, 400 mg TID, Omalizumab-Naïve
[8] = Week 8, 400 mg TID, Prior Omalizumab Use
[9] = Week 9, 400 mg BID, Omalizumab-Naïve
[10] = Week 9, 400 mg BID, Prior Omalizumab Use
[11] = Week 9, 400 mg QPM, Omalizumab-Naïve
[12] = Week 9, 400 mg QPM, Prior Omalizumab Use
[13] = Week 9, 400 mg TID, Omalizumab-Naïve
[14] = Week 9, 400 mg TID, Prior Omalizumab Use
[15] = Week 10, 400 mg BID, Omalizumab-Naïve
[16] = Week 10, 400 mg BID, Prior Omalizumab Use

## CC(C)(C=C(C#N)C(=O)N1CCC[C@@H](n2nc(-c3ccc(Oc4ccccc4)cc3F)c3c(N)ncnc32)C1)N1CCN(C2COC2)CC1 [rilzabrutinib, (R)-2-[3-[4-amino-3-(2-fluoro-4-phenoxy-phenyl)pyrazolo[3,4-d]pyrimidin-1-yl]piperidine-1-carbonyl]-4-methyl-4-[4-(oxetan-3-yl)piperazin-1-yl]pent-2-enenitrile]
[1]
  ISS7 Change from baseline Mean (SD): −8.96 (5.57)
  ISS7 Change from baseline Median: −9.00
  ISS7 Mean (SD): 7.14 (5.35)
  ISS7 Median: 8.00
  ISS7 Percent change from baseline Mean (SD): −55.24 (31.64) %
  ISS7 Percent change from baseline Median: −52.66%
[2]
  ISS7 Change from baseline Mean (SD): −9.94 (7.89)
  ISS7 Change from baseline Median: −7.33
  ISS7 Mean (SD): 7.06 (6.25)
  ISS7 Median: 6.00
  ISS7 Percent change from baseline Mean (SD): −54.94 (32.91) %
  ISS7 Percent change from baseline Median: −48.16%
[3]
  ISS7 Change from baseline Mean (SD): −8.15 (6.15)
  ISS7 Change from baseline Median: −9.00
  ISS7 Mean (SD): 7.33 (6.55)
  ISS7 Median: 6.00
  ISS7 Percent change from baseline Mean (SD): −53.11 (38.61) %
  ISS7 Percent change from baseline Median: −60.00%
[4]
  ISS7 Change from baseline Mean (SD): −11.00 (9.49)
  ISS7 Change from baseline Median: −14.00
  ISS7 Mean (SD): 6.20 (8.32)
  ISS7 Median: 1.00
  ISS7 Percent change from baseline Mean (SD): −61.52 (49.97) %
  ISS7 Percent change from baseline Median: −93.33%
[5]
  ISS7 Change from baseline Mean (SD): −6.03 (4.99)
  ISS7 Change from baseline Median: −6.00
  ISS7 Mean (SD): 10.72 (5.26)
  ISS7 Percent change from baseline Mean (SD): −36.14 (28.79) %
  ISS7 Percent change from baseline Median: −33.68%
[6]
  ISS7 Change from baseline Mean (SD): −14.00 (NC)
  ISS7 Change from baseline Median: −14.00
  ISS7 Mean (SD): 7.00 (NC)
  ISS7 Median: 7.00
[7]
  ISS7 Change from baseline Mean (SD): −9.01 (5.43)
  ISS7 Change from baseline Median: −9.33
  ISS7 Mean (SD): 7.24 (5.51)
  ISS7 Median: 7.00
  ISS7 Percent change from baseline Mean (SD): −55.59 (31.84) %
  ISS7 Percent change from baseline Median: −53.49%
[8]
  ISS7 Change from baseline Mean (SD): −12.67 (6.71)
  ISS7 Change from baseline Median: −14.00
  ISS7 Mean (SD): 4.33 (6.83)
  ISS7 Median: 1.50
  ISS7 Percent change from baseline Mean (SD): −77.10 (31.49) %
  ISS7 Percent change from baseline Median: −86.61%
[9]
  ISS7 Change from baseline Mean (SD): −7.57 (6.14)
  ISS7 Change from baseline Median: −8.00
  ISS7 Mean (SD): 7.63 (7.11)
  ISS7 Median: 7.00
  ISS7 Percent change from baseline Mean (SD): −51.57 (40.77) %
  ISS7 Percent change from baseline Median: −53.33%
[10]
  ISS7 Change from baseline Mean (SD): −10.83 (9.53)
  ISS7 Change from baseline Median: −15.00
  ISS7 Mean (SD): 6.37 (8.47)
  ISS7 Median: 1.00
  ISS7 Percent change from baseline Mean (SD): −60.71 (51.74) %
  ISS7 Percent change from baseline Median: −95.24%
[11]
  ISS7 Change from baseline Mean (SD): −6.39 (5.27)
  ISS7 Change from baseline Median: −5.42
  ISS7 Percent change from baseline Mean (SD): −37.00 (28.06) %
  ISS7 Percent change from baseline Median: −33.33%
[12]
  ISS7 Change from baseline Mean (SD): 11.00 (NC)
  ISS7 Change from baseline Median: −11.00
  ISS7 Mean (SD): 10.00 (NC)
  ISS7 Percent change from baseline Mean (SD): −52.38 (NC) %
  ISS7 Percent change from baseline Median: −52.38%
[13]
  ISS7 Change from baseline Mean (SD): −9.70 (5.57)
  ISS7 Change from baseline Median: −10.00
  ISS7 Mean (SD): 6.68 (5.31)
  ISS7 Median: 7.00
  ISS7 Percent change from baseline Mean (SD): −58.56 (30.66) %
  ISS7 Percent change from baseline Median: −65.00%
[14]
  ISS7 Change from baseline Mean (SD): −12.36 (6.72)
  ISS7 Change from baseline Median: −13.92
  ISS7 Mean (SD): 4.64 (6.72)
  ISS7 Median: 2.00
  ISS7 Percent change from baseline Mean (SD): −74.49 (30.89) %
  ISS7 Percent change from baseline Median: −83.01%
[15]
  ISS7 Change from baseline Mean (SD): −7.07 (6.58)
  ISS7 Change from baseline Median: −7.58
  ISS7 Mean (SD): 8.17 (7.29)
  ISS7 Median: 7.00
  ISS7 Percent change from baseline Mean (SD): −47.10 (43.27) %
  ISS7 Percent change from baseline Median: −48.10%
[16]
  ISS7 Change from baseline Mean (SD): −9.80 (9.55)
  ISS7 Change from baseline Median: −11.00
  ISS7 Mean (SD): 7.40 (8.11)
  ISS7 Median: 4.00
  ISS7 Percent change from baseline Mean (SD): −53.71 (50.05) %
  ISS7 Percent change from baseline Median: −73.33%
Week 10, 400 mg QPM, Omalizumab-Naïve
  ISS7 Change from baseline Mean (SD): −6.43 (5.26)
